# pIC50: −log10 of the molar value.
# How the values were obtained:
# Human recombinant PDE4 = Human recombinant PDE4 (Homo sapiens (Human), UniProt Q08499); assay: PDE4 assay (SPA, cAMP cleavage); assay type: biochemical; conditions: human recombinant PDE4, 1 hour incubation, cAMP 1×10^-5M
# Protocol: At the end of the incubation, the cleavage of the substrate was evaluated by the binding of the AMP product to SPA beads, which generate chemo luminescence when bound to the radioactive tracer. The AMP product inhibited the binding of the radioactive tracer to the beads, and the luminescent signal was competed.
# [1] = tested on: Human peripheral blood mononuclear cells (PBMC); assay: TNFα release in LPS-stimulated PBMC; assay type: cell-based; conditions: 30 minutes pre-incubation, lipopolysaccharide stimulation 18 hours, read-out: TNFa IC50
# Protocol: Human peripheral blood mononuclear cells (PBMC) were isolated from buffy coats. […] The PBMC were suspended in RPMI1640 with 2% foetal calf serum (FCS), pen/strep and 2 mM L-glutamine at a concentration of 5×105 c/ml. The cells were pre-incubated for 30 minutes with the test compounds in 96 well tissue culture plates and stimulated for 18 hours with lipopolysaccharide […] (Sigma). The level of TNFα was measured in the culture supernatant by enzyme immuno assays using primary and secondary biotinylated antibodies from R&D systems.
# Sequence of Human recombinant PDE4 (Q08499 other isoform, or with tags, fused parts or gaps): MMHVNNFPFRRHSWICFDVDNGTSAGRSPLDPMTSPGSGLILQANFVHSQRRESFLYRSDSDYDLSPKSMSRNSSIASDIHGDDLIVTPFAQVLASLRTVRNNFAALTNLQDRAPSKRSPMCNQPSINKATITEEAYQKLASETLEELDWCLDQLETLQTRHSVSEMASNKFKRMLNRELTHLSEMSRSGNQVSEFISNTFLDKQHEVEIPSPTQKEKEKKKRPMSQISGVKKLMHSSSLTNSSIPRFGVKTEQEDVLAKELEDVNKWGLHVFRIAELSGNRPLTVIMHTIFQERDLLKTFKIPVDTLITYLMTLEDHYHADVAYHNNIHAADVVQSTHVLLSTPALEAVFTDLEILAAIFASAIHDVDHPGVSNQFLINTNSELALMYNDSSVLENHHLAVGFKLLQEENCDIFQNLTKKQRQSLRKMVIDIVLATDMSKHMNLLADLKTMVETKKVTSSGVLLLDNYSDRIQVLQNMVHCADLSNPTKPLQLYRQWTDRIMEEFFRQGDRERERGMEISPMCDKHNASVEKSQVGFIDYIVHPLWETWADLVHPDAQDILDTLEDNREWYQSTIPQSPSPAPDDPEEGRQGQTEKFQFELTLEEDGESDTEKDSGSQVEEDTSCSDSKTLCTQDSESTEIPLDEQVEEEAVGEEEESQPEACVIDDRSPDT
Structure (SMILES),pIC50 (Human recombinant PDE4),pIC50 [1]
"COc1ccc(C(=O)Cc2c(Cl)cncc2Cl)n2nc(C3CC3)nc12 [Compound 101, 1-(2-cyclopropyl-8-methoxy-[1,2,4]triazolo[1,5-a]pyridin-5-yl)-2-(3,5-dichloro-pyridin-4-yl)-ethanone]",8.70,8.52
"COc1ccc(C(=O)Cc2c(Cl)cncc2Cl)n2ncnc12 [Compound 102, 2-(3,5-Dichloro-pyridin-4-yl)-1-(8-methoxy-[1,2,4]triazolo[1,5-a]pyridin-5-yl)-ethanone]",6.87,6.54
"COc1ccc(C(=O)Cc2c(Cl)cncc2Cl)n2nc(-c3ccco3)nc12 [Compound 103, 2-(3,5-Dichloro-pyridin-4-yl)-1-(2-furan-2-yl-8-methoxy-[1,2,4]triazolo[1,5-a]pyridin-5-yl)-ethanone]",8.15,7.57
"COc1ccc(C(=O)Cc2c(Cl)cncc2Cl)n2nc(COCc3ccccc3)nc12 [Compound 104, 1-(2-Benzyloxymethyl-8-methoxy-[1,2,4]triazolo[1,5-a]pyridin-5-yl)-2-(3,5-dichloro-pyridin-4-yl)-ethanone]",7.59,7.18
"COc1ccc(C(=O)Cc2c(Cl)cncc2Cl)n2nc(CO)nc12 [Compound 105, 2-(3,5-Dichloro-pyridin-4-yl)-1-(2-hydroxymethyl-8-methoxy-[1,2,4]triazolo[1,5-a]pyridin-5-yl)-ethanone]",6.52,6.22
"COc1ccc(C(=O)Cc2c(Cl)cncc2Cl)n2nc(C)nc12 [Compound 107, 2-(3,5-Dichloro-pyridin-4-yl)-1-(8-methoxy-2-methyl-[1,2,4]triazolo[1,5-a]pyridin-5-yl)-ethanone]",7.35,6.93
"COc1ccc(C(=O)Cc2c(Cl)cncc2Cl)n2nc(C3(C(=O)O)CC3)nc12 [Compound 108, 1-{5-[2-(3,5-Dichloro-pyridin-4-yl)-acetyl]-8-methoxy-[1,2,4]triazolo[1,5-a]pyridin-2-yl}-cyclopropanecarboxylic acid]",7.26,
"COc1ccc(C(=O)Cc2c(Cl)cncc2Cl)n2nc(C3(C(=O)N4CCOCC4)CC3)nc12 [Compound 109, 2-(3,5-Dichloro-pyridin-4-yl)-1-{8-methoxy-2-[1-(morpholine-4-carbonyl)-cyclopropyl]-[1,2,4]triazolo[1,5-a]pyridin-5-yl}-ethanone]",7.62,7.54
"COc1ccc(C(=O)Cc2c(Cl)cncc2Cl)n2nc(C3(C(=O)NCc4ccccc4)CC3)nc12 [Compound 110, 1-{5-[2-(3,5-Dichloro-pyridin-4-yl)-acetyl]-8-methoxy-[1,2,4]triazolo[1,5-a]pyridin-2-yl}-cyclopropanecarboxylic acid benzylamide]",9.30,9.15
"COc1ccc(C(=O)Cc2c(Cl)cncc2Cl)n2nc(C3(C(=O)NCc4ccccn4)CC3)nc12 [Compound 112, 1-{5-[2-(3,5-Dichloro-pyridin-4-yl)-acetyl]-8-methoxy-[1,2,4]triazolo[1,5-a]pyridin-2-yl}-cyclopropanecarboxylic acid (pyridin-2-ylmethyl)-amide]",9.00,9.22
"COc1ccc(C(=O)Cc2c(Cl)cncc2Cl)n2nc(C3(C(=O)NCc4cccnc4)CC3)nc12 [Compound 113, 1-{5-[2-(3,5-Dichloro-pyridin-4-yl)-acetyl]-8-methoxy-[1,2,4]triazolo[1,5-a]pyridin-2-yl}-cyclopropanecarboxylic acid (pyridin-3-ylmethyl)-amide]",9.15,9.30
"COc1ccc(C(=O)Cc2c(Cl)cncc2Cl)n2nc(C3(C(=O)NCC(C)(C)C)CC3)nc12 [Compound 115, 1-{5-[2-(3,5-Dichloro-pyridin-4-yl)-acetyl]-8-methoxy-[1,2,4]triazolo[1,5-a]pyridin-2-yl}-cyclopropanecarboxylic acid (2,2-dimethyl-propyl)-amide]",9.70,
"COc1ccc(C(=O)Cc2c(Cl)cncc2Cl)n2nc(C3(C(=O)NC4CCCC4)CC3)nc12 [Compound 116, 1-{5-[2-(3,5-Dichloro-pyridin-4-yl)-acetyl]-8-methoxy-[1,2,4]triazolo[1,5-a]pyridin-2-yl}-cyclopropanecarboxylic acid cyclopentylamide]",10.00,
"COc1ccc(C(=O)Cc2c(Cl)cncc2Cl)n2nc(C3(C(N)=O)CC3)nc12 [Compound 118, 1-{5-[2-(3,5-Dichloro-pyridin-4-yl)-acetyl]-8-methoxy-[1,2,4]triazolo[1,5-a]pyridin-2-yl}-cyclopropanecarboxylic acid amide]",8.52,8.70
"COc1ccc(C(=O)Cc2c(Cl)cncc2Cl)n2nc(C3(CNCc4ccccc4)CC3)nc12 [Compound 119, 1-{2-[1-(Benzylamino-methyl)-cyclopropyl]-8-methoxy-[1,2,4]triazolo[1,5-a]pyridin-5-yl}-2-(3,5-dichloro-pyridin-4-yl)-ethanone]",8.10,7.89
"COc1ccc(C(=O)Cc2ccccc2Cl)n2nc(C3CC3)nc12 [Compound 127, 2-(2-Chloro-phenyl)-1-(2-cyclopropyl-8-methoxy-[1,2,4]triazolo[1,5-a]pyridin-5-yl)-ethanone]",,6.98
"COc1ccc(C(=O)Cc2c(Cl)c[n+]([O-])cc2Cl)n2nc(C3CC3)nc12 [Compound 128, 1-(2-Cyclopropyl-8-methoxy-[1,2,4]triazolo[1,5-a]pyridin-5-yl)-2-(3,5-dichloro-1-oxy-pyridin-4-yl)-ethanone]",,8.30

# Now from value to compound, other results behind:
pIC50 (Human recombinant PDE4),Structure (SMILES),pIC50 [1]
8.40,"COc1ccc(C(=O)Cc2c(Cl)cncc2Cl)n2nc(C3(CO)CC3)nc12 [Compound 106, 2-(3,5-Dichloro-pyridin-4-yl)-1-[2-(1-hydroxymethyl-cyclopropyl)-8-methoxy-[1,2,4]triazolo[1,5-a]pyridin-5-yl]-ethanone]",8.30
9.40,"COc1ccc(C(=O)Cc2c(Cl)cncc2Cl)n2nc(C3(C(=O)NCc4ccncc4)CC3)nc12 [Compound 114, 1-{5-[2-(3,5-Dichloro-pyridin-4-yl)-acetyl]-8-methoxy-[1,2,4]triazolo[1,5-a]pyridin-2-yl}-cyclopropanecarboxylic acid (pyridin-4-ylmethyl)-amide]",9.70
5.60,"COc1ccc(C(=O)Cc2cnccn2)n2nc(C3(CO)CC3)nc12 [Compound 120, 1-[2-(1-Hydroxymethyl-cyclopropyl)-8-methoxy-[1,2,4]triazolo[1,5-a]pyridin-5-yl]-2-pyrazin-2-yl-ethanone]",5.66
5.44,"COc1ccc(C(=O)Cc2ccnc3ccccc23)n2nc(C3(CO)CC3)nc12 [Compound 121, 1-[2-(1-Hydroxymethyl-cyclopropyl)-8-methoxy-[1,2,4]triazolo[1,5-a]pyridin-5-yl]-2-quinolin-4-yl-ethanone]",5.68
6.58,"COc1ccc(C(=O)Cc2ccncc2)n2nc(C3(CO)CC3)nc12 [Compound 122, 1-[2-(1-Hydroxymethyl-cyclopropyl)-8-methoxy-[1,2,4]triazolo[1,5-a]pyridin-5-yl]-2-pyridin-4-yl-ethanone]",6.86
7.17,"COc1ccc(C(=O)Cc2c(Br)cncc2Br)n2nc(C3(CO)CC3)nc12 [Compound 123, 2-(3,5-Dibromo-pyridin-4-yl)-1-[2-(1-hydroxymethyl-cyclopropyl)-8-methoxy-[1,2,4]triazolo[1,5-a]pyridin-5-yl]-ethanone]",7.82
7.28,"COc1ccc(C(=O)Cc2ccncc2Br)n2nc(C3(CO)CC3)nc12 [Compound 124, 2-(3-Bromo-pyridin-4-yl)-1-[2-(1-hydroxymethyl-cyclopropyl)-8-methoxy-[1,2,4]triazolo[1,5-a]pyridin-5-yl]-ethanone]",6.94
5.51,"COc1ccc(C(=O)Cc2ccnc(C#N)c2)n2nc(C3(CO)CC3)nc12 [Compound 125, 4-{2-[2-(1-Hydroxymethyl-cyclopropyl)-8-methoxy-[1,2,4]triazolo[1,5-a]pyridin-5-yl]-2-oxo-ethyl}-pyridine-2-carbonitrile]",5.32
6.26,"COc1ccc(C(=O)Cc2nccnc2Cl)n2nc(C3(CO)CC3)nc12 [Compound 126, 2-(3-Chloro-pyrazin-2-yl)-1-[2-(1-hydroxymethyl-cyclopropyl)-8-methoxy-[1,2,4]triazolo[1,5-a]pyridin-5-yl]-ethanone]",6.15

# Source: US8829190B2, “Triazolopyridines as phosphodiesterase inhibitors for treatment of dermal diseases” (Leo Pharma A/S, priority 2007, dated 2014)
